Measured values reported in BindingDB's records for doi:10.1021/jm00121a046 (University of Kentucky, 1989).

Legend:
[1] = biological target: Prostaglandin F2-alpha receptor (Sheep); assay: Binding potency towards Prostaglandin F2 alpha receptor (competitive binding) with natural [3H]-PGF 2 alpha in ovine luteal cells (OLC)
[2] = biological target: Prostaglandin F2-alpha receptor (Sheep); assay: as above; remark: listed apart in the source

Row | SMILES | IC50 [1] | IC50 [2]
1 | [N-]=[N+]=Nc1cc(O)cc(OC[C@H](O)/C=C/[C@@H]2[C@@H](C/C=C\CCCC(=O)O)[C@@H](O)C[C@H]2O)c1 | 11 µM | –
2 | [N-]=[N+]=Nc1ccc(CC[C@H](O)/C=C/[C@@H]2[C@@H](C/C=C\CCCC(=O)O)[C@@H](O)C[C@H]2O)cc1I | – | 350 nM
3 | [N-]=[N+]=Nc1ccc(CC[C@H](O)/C=C/[C@@H]2[C@@H](C/C=C\CCCC(=O)O)[C@@H](O)C[C@H]2O)c(O)c1 | 6.1 µM | –
